Assay results from patent publication US20260007131A1, “HERBICIDAL COMPOSITION CONTAINING DIFLUOROBUTENOIC ACID AMIDE COMPOUND” (ISHIHARA SANGYO KAISHA, LTD., priority 2022, published 2026).

Experiments:
Assay type in all cases: in vivo
[1] = system: barnyardgrass (Echinochloa crus-galli); assay: Herbicidal effect on barnyardgrass (foliar treatment)
Experimental: (§1) Upland soil was put into a 1/300,000 hectare (ha) pot, seeds of barnyardgrass (Echinochloa crus-galli) were sown, and about 1.5 cm of cover soil was put. The barnyardgrass was grown for 10 days in a greenhouse until it reached a predetermined leaf stage. […] The spray solution was sprayed over the grown barnyardgrass with a small sprayer for foliar treatment.
(§2) Upland soil was put into a 1/300,000 hectare (ha) pot, seeds of barnyardgrass (Echinochloa crus-galli), crabgrass (Digitaria sanguinalis), green foxtail (Setaria viridis), wild oat (Avena fatua), Italian ryegrass (Lolium multiflorum), foxtail shortawn (Alopecurus aequalis), annual bluegrass (Poa annua), redroot pigweed (Amaranthus retroflexus), common chickweed (Stellaria media) common lambsquarters (Chenopodium album) and black nightshade (Solanum nigrum) were sown, and about 1.5 cm of cover soil was put. The plants were grown for 10 days in a greenhouse until they reached a predetermined leaf stage.

[2] = system: crabgrass (Digitaria sanguinalis); assay: Herbicidal effect on crabgrass (foliar treatment)
Experimental: as §1, §2

[3] = system: green foxtail (Setaria viridis); assay: Herbicidal effect on green foxtail (foliar treatment)
Experimental: as §1, §2

wild oat (Avena fatua) = assay: Herbicidal effect on wild oat (foliar treatment)
Experimental: as §1, §2

[4] = system: Italian ryegrass (Lolium multiflorum); assay: Herbicidal effect on Italian ryegrass (foliar treatment)
Experimental: as §1, §2

[5] = system: foxtail shortawn (Alopecurus aequalis); assay: Herbicidal effect on foxtail shortawn (foliar treatment)
Experimental: as §1, §2

[6] = system: annual bluegrass (Poa annua); assay: Herbicidal effect on annual bluegrass (foliar treatment)
Experimental: as §1, §2

[7] = system: redroot pigweed (Amaranthus retroflexus); assay: Herbicidal effect on redroot pigweed (foliar treatment)
Experimental: as §1, §2

[8] = system: common chickweed (Stellaria media); assay: Herbicidal effect on common chickweed (foliar treatment)
Experimental: as §1, §2

[9] = system: common lambsquarters (Chenopodium album); assay: Herbicidal effect on common lambsquarters (foliar treatment)
Experimental: as §1, §2

[10] = system: black nightshade (Solanum nigrum); assay: Herbicidal effect on black nightshade (foliar treatment)
Experimental: as §1, §2

[11] = system: barnyardgrass (Echinochloa crus-galli); assay: Herbicidal effect on barnyardgrass (soil treatment)
Excerpt: (§3) Upland soil was put into a 1/300,000 hectare (ha) pot, seeds of barnyardgrass (Echinochloa crus-galli) were sown, and about 1.5 cm of cover soil was put. […] On the next day after sowing, the spray solution was sprayed with a small sprayer for soil treatment.
(§4) Upland soil was put into a 1/300,000 hectare (ha) pot, seeds of barnyardgrass (Echinochloa crus-galli), crabgrass (Digitaria sanguinalis), green foxtail (Setaria viridis), Italian ryegrass (Lolium multiflorum), redroot pigweed (Amaranthus retroflexus) and common chickweed (Stellaria media) were sown, and about 1.5 cm of cover soil was put.

[12] = system: crabgrass (Digitaria sanguinalis); assay: Herbicidal effect on crabgrass (soil treatment)
Excerpt: as §3, §4

[13] = system: green foxtail (Setaria viridis); assay: Herbicidal effect on green foxtail (soil treatment)
Excerpt: as §3, §4

[14] = system: Italian ryegrass (Lolium multiflorum); assay: Herbicidal effect on Italian ryegrass (soil treatment); details: Comparative Test 2, Italian ryegrass, read-out: Growth inhibition rate
Excerpt: as §3, §4

[15] = system: redroot pigweed (Amaranthus retroflexus); assay: Herbicidal effect on redroot pigweed (soil treatment)
Excerpt: as §3, §4

[16] = system: mexican burningbush (Kochia scoparia); assay: Herbicidal effect on mexican burningbush (soil treatment); details: Bassia scoparia, 14th day, read-out: growth inhibition rate
Excerpt: Upland soil was put into a 1/300,000 hectare (ha) pot, seeds of barnyardgrass (Echinochloa crus-galli) were sown, and about 1.5 cm of cover soil was put. The Invention Compound was weighed to achieve a predetermined active ingredient amount, dissolved in acetone (containing 0.5 vol % of surfactant (TritonX-100: manufactured by Kishida Chemical Co., Ltd.)) or dimethyl sulfoxide and diluted with water (containing 0.1 vol % of agricultural spreader (Surfactant WK: manufactured by MARUWA Biochemical Co., Ltd.)) in an amount corresponding to 1,000 liter per hectare, to prepare a spray solution. On the next day after sowing, the spray solution was sprayed with a small sprayer for soil treatment.
On the 14th day after the soil treatment, the state of growth of each plant was visually observed.
To confirm herbicidal effect on mexican burningbush (Kochia scoparia), the same test as in Test Example 2 (2-1) (soil treatment) was conducted using the following compounds.

[17] = system: common chickweed (Stellaria media); assay: Comparative Test 2: herbicidal effect on common chickweed (soil treatment); details: Comparative Test 2, common chickweed, read-out: Growth inhibition rate
Excerpt: Upland soil was put into a 1/300,000 hectare (ha) pot, seeds of barnyardgrass (Echinochloa crus-galli), crabgrass (Digitaria sanguinalis), green foxtail (Setaria viridis), Italian ryegrass (Lolium multiflorum), redroot pigweed (Amaranthus retroflexus) and common chickweed (Stellaria media) were sown, and about 1.5 cm of cover soil was put. The Invention Compound (Aa-1-1, Aa-9-2) or the compound 4b described in Patent Document 1 was weighed to achieve a predetermined active ingredient dose, dissolved in acetone (containing 0.5 vol % of surfactant (TritonX-100: manufactured by Kishida Chemical Co., Ltd.)) or dimethyl sulfoxide and diluted with water (containing 0.1 vol % of agricultural spreader (Surfactant WK: manufactured by MARUWA Biochemical Co., Ltd.) in an amount corresponding to 1,000 liter per hectare, to prepare each spray solution. On the next day after sowing, each spray solution was sprayed with a small sprayer for soil treatment. On the 14th day after the soil treatment, the state of growth of each plant was visually observed, and the herbicidal effect was evaluated in accordance with the growth inhibition rate (%) of from 0 (equivalent to the non-treated area) to 100 (complete kill).

[18] = barnyardgrass, 250 g/ha, 14th day, read-out: growth inhibition rate
[19] = crabgrass, 250 g/ha, 14th day, read-out: growth inhibition rate
[20] = green foxtail, 250 g/ha, 14th day, read-out: growth inhibition rate
[21] = redroot pigweed, 250 g/ha, 14th day, read-out: growth inhibition rate

## COC(=O)[C@H]1C[C@@H](NC(=O)C(F)(F)/C=C/c2cc(F)cc(F)c2)C1 [Aa-1-1]
[1]; Comparative Test 1, barnyardgrass, 500 g/ha, read-out: Growth inhibition rate
  inhibition at 500 g/ha: ≥ 90%
[1]; Comparative Test 1, barnyardgrass, 1000 g/ha, read-out: Growth inhibition rate
  inhibition at 1000 g/ha: ≥ 90%
[1]; [18]
  inhibition at 250 g/ha: ≥ 70%
[2]; Comparative Test 1, crabgrass, 500 g/ha, read-out: Growth inhibition rate
  inhibition at 500 g/ha: ≥ 90%
[2]; Comparative Test 1, crabgrass, 1000 g/ha, read-out: Growth inhibition rate
  inhibition at 1000 g/ha: ≥ 90%
[2]; [19]
  inhibition at 250 g/ha: ≥ 70%
[3]; Comparative Test 1, green foxtail, 500 g/ha, read-out: Growth inhibition rate
  inhibition at 500 g/ha: ≥ 90%
[3]; Comparative Test 1, green foxtail, 1000 g/ha, read-out: Growth inhibition rate
  inhibition at 1000 g/ha: ≥ 90%
[3]; [20]
  inhibition at 250 g/ha: ≥ 70%
Wild oat (Avena fatua); Comparative Test 1, wild oat, 500 g/ha, read-out: Growth inhibition rate
  inhibition at 500 g/ha: ≥ 90%
Wild oat (Avena fatua); Comparative Test 1, wild oat, 1000 g/ha, read-out: Growth inhibition rate
  inhibition at 1000 g/ha: ≥ 90%
Wild oat (Avena fatua); wild oat, 250 g/ha, 14th day, read-out: growth inhibition rate
  inhibition at 250 g/ha: ≥ 70%
[4]; Comparative Test 1, Italian ryegrass, 500 g/ha, read-out: Growth inhibition rate
  inhibition at 500 g/ha: ≥ 90%
[4]; Comparative Test 1, Italian ryegrass, 1000 g/ha, read-out: Growth inhibition rate
  inhibition at 1000 g/ha: ≥ 90%
[4]; Italian ryegrass, 250 g/ha, 14th day, read-out: growth inhibition rate
  inhibition at 250 g/ha: ≥ 70%
[5]; Comparative Test 1, foxtail shortawn, 500 g/ha, read-out: Growth inhibition rate
  inhibition at 500 g/ha: ≥ 90%
[5]; Comparative Test 1, foxtail shortawn, 1000 g/ha, read-out: Growth inhibition rate
  inhibition at 1000 g/ha: ≥ 90%
[5]; foxtail shortawn, 250 g/ha, 14th day, read-out: growth inhibition rate
  inhibition at 250 g/ha: ≥ 70%
[6]; Comparative Test 1, annual bluegrass, 500 g/ha, read-out: Growth inhibition rate
  inhibition at 500 g/ha: ≥ 90%
[6]; Comparative Test 1, annual bluegrass, 1000 g/ha, read-out: Growth inhibition rate
  inhibition at 1000 g/ha: ≥ 90%
[6]; annual bluegrass, 250 g/ha, 14th day, read-out: growth inhibition rate
  inhibition at 250 g/ha: ≥ 70%
[7]; Comparative Test 1, redroot pigweed, 500 g/ha, read-out: Growth inhibition rate
  inhibition at 500 g/ha: 70 to 90%
[7]; Comparative Test 1, redroot pigweed, 1000 g/ha, read-out: Growth inhibition rate
  inhibition at 1000 g/ha: 70 to 90%
[7]; [21]
  inhibition at 250 g/ha: ≥ 70%
[8]; Comparative Test 1, common chickweed, 500 g/ha, read-out: Growth inhibition rate
  inhibition at 500 g/ha: ≥ 90%
[8]; Comparative Test 1, common chickweed, 1000 g/ha, read-out: Growth inhibition rate
  inhibition at 1000 g/ha: ≥ 90%
[8]; common chickweed, 250 g/ha, 14th day, read-out: growth inhibition rate
  inhibition at 250 g/ha: ≥ 70%
[9]; Comparative Test 1, common lambsquarters, 500 g/ha, read-out: Growth inhibition rate
  inhibition at 500 g/ha: 70 to 90%
[9]; Comparative Test 1, common lambsquarters, 1000 g/ha, read-out: Growth inhibition rate
  inhibition at 1000 g/ha: 70 to 90%
[9]; common lambsquarters, 250 g/ha, 14th day, read-out: growth inhibition rate
  inhibition at 250 g/ha: ≥ 70%
[10]; Comparative Test 1, black nightshade, 500 g/ha, read-out: Growth inhibition rate
  inhibition at 500 g/ha: 70 to 90%
[10]; Comparative Test 1, black nightshade, 1000 g/ha, read-out: Growth inhibition rate
  inhibition at 1000 g/ha: ≥ 90%
[10]; black nightshade, 250 g/ha, 14th day, read-out: growth inhibition rate
  inhibition at 250 g/ha: ≥ 70%
[11]; Comparative Test 2, barnyardgrass, 500 g/ha, read-out: Growth inhibition rate
  inhibition at 500 g/ha: ≥ 90%
[11]; Comparative Test 2, barnyardgrass, 1000 g/ha, read-out: Growth inhibition rate
  inhibition at 1000 g/ha: ≥ 90%
[11]; [18]
  inhibition at 250 g/ha: ≥ 70%
[12]; Comparative Test 2, crabgrass, 500 g/ha, read-out: Growth inhibition rate
  inhibition at 500 g/ha: ≥ 90%
[12]; Comparative Test 2, crabgrass, 1000 g/ha, read-out: Growth inhibition rate
  inhibition at 1000 g/ha: ≥ 90%
[12]; [19]
  inhibition at 250 g/ha: ≥ 70%
[13]; Comparative Test 2, green foxtail, 500 g/ha, read-out: Growth inhibition rate
  inhibition at 500 g/ha: ≥ 90%
[13]; Comparative Test 2, green foxtail, 1000 g/ha, read-out: Growth inhibition rate
  inhibition at 1000 g/ha: ≥ 90%
[13]; [20]
  inhibition at 250 g/ha: ≥ 70%
[14]; 500 g/ha
  inhibition at 500 g/ha: ≥ 90%
[14]; 1000 g/ha
  inhibition at 1000 g/ha: ≥ 90%
[15]; Comparative Test 2, redroot pigweed, 500 g/ha, read-out: Growth inhibition rate
  inhibition at 500 g/ha: ≥ 90%
[15]; Comparative Test 2, redroot pigweed, 1000 g/ha, read-out: Growth inhibition rate
  inhibition at 1000 g/ha: ≥ 90%
[15]; [21]
  inhibition at 250 g/ha: ≥ 70%
[16]
  inhibition at 250 g/ha: ≥ 70%
[17]; 500 g/ha
  inhibition at 500 g/ha: ≥ 90%
[17]; 1000 g/ha
  inhibition at 1000 g/ha: ≥ 90%
